Data on nine molecules can be found in ChEMBL document CHEMBL5257052, “Aromatic Polyketides from the Mangrove-Derived Streptomyces sp. SCSIO 40069” (2023).

Assay type in all cases: functional
For one assay, the system named is Acinetobacter baumannii. The assay can be described thus: Antibacterial activity against Acinetobacter baumannii ATCC 19606 measured after 16 hrs by broth microdilution method. On the technique in general: Dilution methods test growth across graded concentrations, often in twofold steps.
For a further assay, the system named is Vibrio alginolyticus. The assay can be described thus: Antibacterial activity against Vibrio alginolyticus 13214 measured after 16 hrs by broth microdilution method.
For another assay, the system named is Klebsiella pneumoniae. Put plainly: Antibacterial activity against Klebsiella pneumoniae ATCC 13883 measured after 16 hrs by broth microdilution method.
For a further assay, the system named is Staphylococcus aureus. The assay can be described thus: Antibacterial activity against Staphylococcus aureus ATCC 29213 measured after 16 hrs by broth microdilution method.
A further assay deals with Micrococcus luteus. The assay can be described thus: Antibacterial activity against Micrococcus luteus SCSIO ML01 measured after 16 hrs by broth microdilution method.

Structures are written as SMILES. Values after ≈ are worked out from the molar mass of the structure shown.

For the molecule `CC(=O)c1c(O)cc2c3c(cccc13)C=C(C=O)O2`, the MIC – broadly, the least concentration at which growth counts as inhibited – was above 64 µg/mL in the assay with Acinetobacter baumannii; 32 µg/mL (≈ 126 µM) against Vibrio alginolyticus; 32 µg/mL (≈ 126 µM) against Klebsiella pneumoniae; above 64 µg/mL with Staphylococcus aureus; 32 µg/mL (≈ 126 µM) against Micrococcus luteus.
For the molecule `CC(=O)c1c(O)cc2c3c(cccc13)C=C([C@@H](O)[C@H](C)O)O2`, the MIC against Acinetobacter baumannii, in the assay on Vibrio alginolyticus, with Klebsiella pneumoniae, against Staphylococcus aureus and against Micrococcus luteus was above 64 µg/mL in each case.
Take `CC(=O)CC1=Cc2cccc3c(C(C)=O)c(O)cc(c23)O1`: the MIC was above 64 µg/mL against Acinetobacter baumannii; 32 µg/mL (≈ 113 µM) in the assay with Vibrio alginolyticus; 8 µg/mL (≈ 28.3 µM) against Klebsiella pneumoniae; 8 µg/mL (≈ 28.3 µM) in the assay on Staphylococcus aureus; 8 µg/mL (≈ 28.3 µM) against Micrococcus luteus.
Take `CC(=O)c1c(O)cc2c3c(cccc13)C=C([C@H](O)[C@H](C)O)O2`: the MIC in the assay with Acinetobacter baumannii, in the assay with Vibrio alginolyticus, with Klebsiella pneumoniae, with Staphylococcus aureus and with Micrococcus luteus was above 64 µg/mL in each case.
As to `CC(=O)c1c(O)cc2c3c(cccc13)C=C([C@@H](O)[C@@H](C)O)O2`, the MIC against Acinetobacter baumannii, in the assay with Vibrio alginolyticus, against Klebsiella pneumoniae, with Staphylococcus aureus and with Micrococcus luteus was above 64 µg/mL in each case.
Consider `CC(=O)c1c(O)cc2c3c(cccc13)C=C([C@H](O)[C@@H](C)O)O2`, for which the MIC with Acinetobacter baumannii is 32 µg/mL (≈ 107 µM); in the assay on Vibrio alginolyticus, 64 µg/mL (≈ 213 µM); in the assay on Klebsiella pneumoniae, 16 µg/mL (≈ 53.3 µM); against Staphylococcus aureus, above 64 µg/mL; in the assay with Micrococcus luteus, above 64 µg/mL.
With `CC(=O)c1c(O)cc2c3c(cccc13)C=C(C)O2`, the MIC against Acinetobacter baumannii was above 64 µg/mL; against Vibrio alginolyticus it was 64 µg/mL (≈ 266 µM); against Klebsiella pneumoniae, above 64 µg/mL; against Staphylococcus aureus, above 64 µg/mL; against Micrococcus luteus, 64 µg/mL (≈ 266 µM).
Consider `CC(=O)c1c(O)cc2c3c(cccc13)C=C(CO)O2`, for which the MIC is 64 µg/mL (≈ 250 µM) against Acinetobacter baumannii; above 64 µg/mL against Vibrio alginolyticus; 64 µg/mL (≈ 250 µM) against Klebsiella pneumoniae; 8 µg/mL (≈ 31.2 µM) with Staphylococcus aureus; 8 µg/mL (≈ 31.2 µM) in the assay on Micrococcus luteus.
Regarding `COc1cc(Cc2cnc(N)nc2N)cc(OC)c1OC` [TRIMETHOPRIM], the MIC with Acinetobacter baumannii was found to be 0.125 µg/mL (≈ 0.431 µM); against Vibrio alginolyticus it was 0.125 µg/mL (≈ 0.431 µM); against Klebsiella pneumoniae, 0.125 µg/mL (≈ 0.431 µM); with Staphylococcus aureus, 2 µg/mL (≈ 6.89 µM); against Micrococcus luteus, 2 µg/mL (≈ 6.89 µM).
